According to US12054498B2, “Heteroaromatic macrocyclic ether chemotherapeutic agents” (Nuvalent, Inc., priority 2020, dated 2024):

Tests used:
ALK-wt = molecular target: T1, ALK-wt (Homo sapiens, UniProt Q9UM73); experiment: Biochemical kinase assay, ALK-wt kinase domain; settings: apparent inhibitory constant, Morrison equation; ATP 2 mM in substrate solution; read-out: ALK-wt Ki^app
T1 construct: purchased Carna 08-518
Method: (§1) First, 250 nL of compound dissolved in DMSO (100-fold of the desired concentration) was dispensed into a 384-well plate. A 12.5 μL substrate solution containing ATP (2 mM) and fluorogenic phosphorylation substrate AQT0101 (26 μM for ALK and ROS1, AssayQuant) or AQT0104 (26 μM for TRKA, AssayQuant) in buffer (50 mM HEPES pH 7.5, 0.01% Brij-35, 0.5 mM EGTA, 10 mM MgCl2) was added and mixed thoroughly. Then, a 12.5 μL kinase solution containing ALK-wt (1.5 nM, Carna, 08-518), ALK ALK L1196M/G1202R (3 nM, SignalChem, A19-12NG), ROS1-wt (0.6 nM, Carna, 08-163), ROS1-G2032R (0.5 nM, SignalChem, R14-12BG), or TRKA-wt (1 nM, BPS Bio, 40280) kinase domains in buffer (50 nM HEPES pH 7.5, 0.01% Brij-35, 2% glycerol, 0.4 mg/mL BSA, 0.5 mM EGTA, and 10 mM MgCl2) was added and mixed thoroughly. The plate was sealed and read by SpectraMax Paradigm at λ=485 nm every 2 minutes for 120 minutes at 30° C. Initial rates of reaction (v) were calculated from the change in fluorescence intensity over time during the initial, linear portion of the reaction. Finally, apparent inhibitory constants (Ki^app) were determined from regression of v and I (inhibitor concentration) to Morrison Equation (E=enzyme concentration): […]

ALK L1196M/G1202R = molecular target: T2, ALK L1196M/G1202R (Homo sapiens, UniProt Q9UM73, G1202R/L1196M); experiment: Biochemical kinase assay, ALK L1196M/G1202R kinase domain; settings: apparent inhibitory constant, Morrison equation; ATP 2 mM in substrate solution; read-out: ALK-L1196M-G1202R Ki^app
T2 construct: purchased SignalChem A19-12NG
T2 sequence (Q9UM73 1116-1392 L1196M/G1202R limits assumed): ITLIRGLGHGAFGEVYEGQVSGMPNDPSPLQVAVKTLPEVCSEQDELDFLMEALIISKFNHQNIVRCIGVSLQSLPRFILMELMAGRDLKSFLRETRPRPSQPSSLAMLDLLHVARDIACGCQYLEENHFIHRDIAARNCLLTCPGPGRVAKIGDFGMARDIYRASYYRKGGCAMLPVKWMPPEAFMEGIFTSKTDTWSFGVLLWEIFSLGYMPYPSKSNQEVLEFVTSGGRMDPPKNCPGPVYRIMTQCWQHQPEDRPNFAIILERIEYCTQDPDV
Method: as §1

ROS1-wt = molecular target: T3, ROS1-wt (Homo sapiens, UniProt P08922); experiment: Biochemical kinase assay, ROS1-wt kinase domain; settings: apparent inhibitory constant, Morrison equation; ATP 2 mM in substrate solution; read-out: ROS1-wt Ki^app
T3 construct: purchased Carna 08-163
T3 sequence (P08922 1945-2222 limits assumed): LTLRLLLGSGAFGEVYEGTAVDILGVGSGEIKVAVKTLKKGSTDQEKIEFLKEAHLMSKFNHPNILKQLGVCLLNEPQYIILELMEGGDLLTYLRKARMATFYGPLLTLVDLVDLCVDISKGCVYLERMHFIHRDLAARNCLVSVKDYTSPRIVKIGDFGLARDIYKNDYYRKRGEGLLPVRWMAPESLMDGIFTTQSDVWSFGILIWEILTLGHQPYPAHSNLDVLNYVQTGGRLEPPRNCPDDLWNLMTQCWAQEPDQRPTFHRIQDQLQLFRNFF
Method: as §1, with “Then, a 12.5 μL kinase solution containing ALK-wt (1.5 nM, Carna, 08-518), ALK ALK L1196M/G1202R (3 nM, SignalChem, A19-12NG), ROS1-wt (0.6 nM, Carna, 08-163), ROS1-G2032R (0.5 nM, SignalChem, R14-12BG), or TRKA-wt (1 nM, BPS Bio, 40280) kinase domains in buffer (50 nM HEPES pH 7.5, 0.01% Brij-35, 2% glycerol, 0.4 mg/mL BSA, 0.5 mM EGTA, and 10 mM MgCl2) was added and mixed thoroughly.” left out

ROS1-G2032R = molecular target: T4, ROS1-G2032R (Homo sapiens, UniProt P08922, G2032R); experiment: Biochemical kinase assay, ROS1-G2032R kinase domain; settings: apparent inhibitory constant, Morrison equation; ATP 2 mM in substrate solution; read-out: ROS1-G2032R Ki^app
T4 construct: purchased SignalChem R14-12BG
T4 sequence (P08922 1945-2222 G2032R limits assumed): as the sequence (P08922 1945-2222 limits assumed) above, with G88R counted along it
Method: as §1, with “Then, a 12.5 μL kinase solution containing ALK-wt (1.5 nM, Carna, 08-518), ALK ALK L1196M/G1202R (3 nM, SignalChem, A19-12NG), ROS1-wt (0.6 nM, Carna, 08-163), ROS1-G2032R (0.5 nM, SignalChem, R14-12BG), or TRKA-wt (1 nM, BPS Bio, 40280) kinase domains in buffer (50 nM HEPES pH 7.5, 0.01% Brij-35, 2% glycerol, 0.4 mg/mL BSA, 0.5 mM EGTA, and 10 mM MgCl2) was added and mixed thoroughly.” left out

TRKA-wt = molecular target: T5, TRKA-wt (Homo sapiens, UniProt P04629); experiment: Biochemical kinase assay, TRKA-wt kinase domain; settings: apparent inhibitory constant, Morrison equation; ATP 2 mM in substrate solution; read-out: TRKA-wt Ki^app
T5 construct: or TRKA-wt (1 nM, BPS Bio, 40280) kinase domains in buffer; purchased BPS Bio 40280
T5 sequence (P04629 510-781 limits assumed): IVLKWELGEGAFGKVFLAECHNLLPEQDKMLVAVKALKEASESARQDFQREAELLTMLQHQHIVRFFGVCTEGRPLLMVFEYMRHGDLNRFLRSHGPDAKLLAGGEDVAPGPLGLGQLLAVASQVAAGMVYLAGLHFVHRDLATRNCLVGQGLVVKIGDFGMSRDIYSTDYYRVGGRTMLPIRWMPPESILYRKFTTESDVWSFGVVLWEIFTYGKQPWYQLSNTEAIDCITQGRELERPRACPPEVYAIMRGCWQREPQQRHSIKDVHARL
Method: as §1

[1] = molecular target: T6, Ba/F3 cells CD74-ROS1 wild-type (wt) (Homo sapiens, UniProt P08922); experiment: Ba/F3 cell proliferation assay, CD74-ROS1 wild-type; type: cell-based; settings: 72 hours, CellTiter-Glo
T6 construct: fusion of the C-terminus of ROS1 with the N-terminus of various partner proteins; host or cells: Ba/F3 (RIKEN), retroviral pMSCV-puro; the other entry of the earlier key: CD74 (P04233, HLA class II histocompatibility antigen gamma chain)
T6 sequence (P08922 1883-2347 limits assumed): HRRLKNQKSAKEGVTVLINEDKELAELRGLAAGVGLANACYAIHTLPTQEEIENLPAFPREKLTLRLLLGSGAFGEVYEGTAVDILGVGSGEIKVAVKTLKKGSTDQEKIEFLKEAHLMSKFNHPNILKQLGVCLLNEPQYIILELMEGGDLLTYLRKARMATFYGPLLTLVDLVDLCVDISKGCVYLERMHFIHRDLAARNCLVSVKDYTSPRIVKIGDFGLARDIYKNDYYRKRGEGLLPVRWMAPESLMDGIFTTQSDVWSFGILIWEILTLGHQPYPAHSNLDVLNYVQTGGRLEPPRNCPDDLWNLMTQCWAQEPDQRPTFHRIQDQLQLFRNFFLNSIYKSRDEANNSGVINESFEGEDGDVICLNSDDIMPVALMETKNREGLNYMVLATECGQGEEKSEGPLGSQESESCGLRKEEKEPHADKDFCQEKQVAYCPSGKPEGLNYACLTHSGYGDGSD
Method in brief: (§2)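 IL-3-independent Ba/F3 CD74-ROS1 lines, puromycin-selected monoclones; 1,000 cells/well, plated 1 d before dosing; 3-fold serial dilutions, 72 h; CellTiter-Glo luminescence; IC50 by 4-parameter logistic regression.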

[2] = molecular target: T7, Ba/F3 cells CD74-ROS1 G2032R (Homo sapiens, UniProt P08922, G2032R); experiment: Ba/F3 cell proliferation assay, CD74-ROS1 G2032R; type: cell-based; settings: 72 hours, CellTiter-Glo
T7 construct: fusion of the C-terminus of ROS1 with the N-terminus of various partner proteins; host or cells: Ba/F3 (RIKEN), retroviral pMSCV-puro; the other entry of the earlier key: CD74 (P04233, HLA class II histocompatibility antigen gamma chain)
T7 sequence (P08922 1883-2347 G2032R limits assumed): as the sequence (P08922 1883-2347 limits assumed) above, with G150R counted along it
Method in brief: as §2

[3] = molecular target: T8, Ba/F3 cells EML4-ALK wt (variant 1) (Homo sapiens, UniProt Q9UM73); experiment: Ba/F3 cell proliferation assay, EML4-ALK wt (variant 1); type: cell-based; settings: 72 hours, CellTiter-Glo
T8 construct: echinoderm microtubule-associated protein-like 4 (EML4) gene and the ALK tyrosine kinase domain; host or cells: Ba/F3 (RIKEN), retroviral pMSCV-puro; the other entry of the earlier key: EML4 (Q9HC35, Echinoderm microtubule-associated protein-like 4)
T8 sequence (Q9UM73 with tags, fused parts or gaps): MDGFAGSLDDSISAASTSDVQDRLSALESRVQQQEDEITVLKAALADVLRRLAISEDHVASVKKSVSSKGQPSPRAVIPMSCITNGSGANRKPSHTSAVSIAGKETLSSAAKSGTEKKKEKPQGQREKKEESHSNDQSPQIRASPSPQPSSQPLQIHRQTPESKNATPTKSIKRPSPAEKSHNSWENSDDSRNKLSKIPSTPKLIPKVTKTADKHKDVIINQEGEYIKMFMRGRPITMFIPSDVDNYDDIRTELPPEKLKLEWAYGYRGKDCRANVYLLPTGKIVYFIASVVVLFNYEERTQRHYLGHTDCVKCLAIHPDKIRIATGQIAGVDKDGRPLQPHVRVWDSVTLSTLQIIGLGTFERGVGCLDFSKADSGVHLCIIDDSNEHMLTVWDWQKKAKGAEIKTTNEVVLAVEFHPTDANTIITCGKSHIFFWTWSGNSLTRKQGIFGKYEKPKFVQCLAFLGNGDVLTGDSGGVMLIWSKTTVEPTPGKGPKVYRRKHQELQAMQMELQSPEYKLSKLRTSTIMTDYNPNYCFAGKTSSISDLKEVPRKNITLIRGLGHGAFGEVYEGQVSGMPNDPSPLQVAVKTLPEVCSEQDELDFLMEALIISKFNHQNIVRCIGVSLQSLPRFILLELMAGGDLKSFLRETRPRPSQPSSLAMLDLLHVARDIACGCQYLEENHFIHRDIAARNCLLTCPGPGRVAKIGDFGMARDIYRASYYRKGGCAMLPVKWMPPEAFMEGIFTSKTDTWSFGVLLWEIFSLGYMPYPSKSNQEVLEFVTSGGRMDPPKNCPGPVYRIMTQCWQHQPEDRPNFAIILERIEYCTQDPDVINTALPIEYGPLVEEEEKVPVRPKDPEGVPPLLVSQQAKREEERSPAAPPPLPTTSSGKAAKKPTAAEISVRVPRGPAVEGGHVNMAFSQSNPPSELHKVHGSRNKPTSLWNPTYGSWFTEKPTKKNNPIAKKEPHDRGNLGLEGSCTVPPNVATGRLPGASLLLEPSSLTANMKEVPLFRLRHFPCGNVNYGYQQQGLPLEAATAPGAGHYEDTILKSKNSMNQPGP
Method in brief: (§3)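 IC50 values come from four-parameter logistic regression of CellTiter-Glo luminescence after 72 h exposure to 3-fold serial dilutions. Cells are Ba/F3 transformed by retroviral fusion-kinase constructs, grown without IL-3 under puromycin, plated at 1,000 per well a day before dosing.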

[4] = molecular target: T9, Ba/F3 cells EML4-ALK L1196M/G1202R (variant 1) (Homo sapiens, UniProt Q9UM73, G1202R/L1196M); experiment: Ba/F3 cell proliferation assay, EML4-ALK L1196M/G1202R (variant 1); type: cell-based; settings: 72 hours, CellTiter-Glo
T9 construct: echinoderm microtubule-associated protein-like 4 (EML4) gene and the ALK tyrosine kinase domain; host or cells: Ba/F3 (RIKEN), retroviral pMSCV-puro; the other entry of the earlier key: EML4 (Q9HC35, Echinoderm microtubule-associated protein-like 4)
T9 sequence (Q9UM73 with tags, fused parts or gaps L1196M/G1202R): as the sequence (Q9UM73 with tags, fused parts or gaps) above, with L635M, G641R counted along it
Method in brief: as §3

Ba/F3 cells TPM3-TRKA = molecular target: T10, Ba/F3 cells TPM3-TRKA (Homo sapiens, UniProt P04629); experiment: Ba/F3 cell proliferation assay, TPM3-TRKA; type: cell-based; settings: 72 hours, CellTiter-Glo, read-out: TPM3-NTRK1-wt IC50
T10 construct: host or cells: Ba/F3 (RIKEN), retroviral pMSCV-puro; the other entry of the earlier key: TPM3 (P06753, Tropomyosin alpha-3 chain)
T10 sequence (P04629 510-796 limits assumed): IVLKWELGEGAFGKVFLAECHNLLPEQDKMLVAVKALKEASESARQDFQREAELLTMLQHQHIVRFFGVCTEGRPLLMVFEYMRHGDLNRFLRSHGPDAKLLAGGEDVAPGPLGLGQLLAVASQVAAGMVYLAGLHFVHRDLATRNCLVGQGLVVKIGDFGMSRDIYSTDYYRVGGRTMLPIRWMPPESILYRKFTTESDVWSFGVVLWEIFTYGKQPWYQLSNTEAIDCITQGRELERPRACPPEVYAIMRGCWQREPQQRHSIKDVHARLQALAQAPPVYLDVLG
Method in brief: as §3

[5] = test system: TPM3-NTRK1-wt IC50 / primary target IC50 (e.g. CD74-ROS1-wt); experiment: TRKA selectivity in Ba/F3 cells (TRKA potency divided by primary target potency); type: cell-based; settings: for TPM3-NTRK1-wt/CD74-ROS1-G2032R selectivity ratio: TRKA potency / CD74-ROS1-G2032R potency; for TPM3-NTRK1-wt/CD74-ROS1-wt selectivity ratio: TRKA potency / CD74-ROS1-wt potency; for TPM3-NTRK1-wt/EML4-ALK-L1196M-G1202R selectivity ratio: TRKA potency / EML4-ALK-L1196M-G1202R potency; for TPM3-NTRK1-wt/EML4-ALK-wt selectivity ratio: TRKA potency / EML4-ALK-wt potency
Method: TRKA selectivity was calculated by dividing a compound's TRKA potency by its primary target potency (e.g. TPM3-NTRK1-wt IC50/CD74-ROS1-wt IC50). Compound selectivity can be interpreted by binning ratio values: bin A for very high selectivity, ratio >30-fold; bin B for high selectivity, ratio >10-fold; bin C for moderate selectivity, ratio ≥1; and bin D for low selectivity, ratio <1. […] (nd=not determined).

T1 sequence (Q9UM73 1116-1392 limits assumed): as the sequence (Q9UM73 1116-1392 L1196M/G1202R limits assumed) above, with M81L, R87G counted along it

Row | Compound | Ki (ALK-wt) [nM] | Ki (ALK L1196M/G1202R) [nM] | Ki (ROS1-wt) [nM] | Ki (ROS1-G2032R) [nM] | Ki (TRKA-wt) [nM] | IC50 [1] [nM] | IC50 [2] [nM] | IC50 [3] [nM] | IC50 [4] [nM] | IC50 (Ba/F3 cells TPM3-TRKA) [nM] | TPM3-NTRK1-wt/CD74-ROS1-G2032R selectivity ratio [5] | TPM3-NTRK1-wt/CD74-ROS1-wt selectivity ratio [5] | TPM3-NTRK1-wt/EML4-ALK-L1196M-G1202R selectivity ratio [5] | TPM3-NTRK1-wt/EML4-ALK-wt selectivity ratio [5]
1 | CCn1nc(C(F)(F)F)c2c1-c1cnc(N)c(c1)O[C@H](C)c1cc(F)ccc1-c1nn(C)nc1C2 [Example 80, (19R)-3-ethyl-16-fluoro-10,19-dimethyl-5-(trifluoromethyl)-20-oxa-3,4,9,10,11,23-hexaazapentacyclo[19.3.1.0^2,^6.0^8,^12.0^13,^18]pentacosa-1(24),2(6),4,8,11,13,15,17,21(25),22-decaen-22-amine] | < 50 | 50 to 500 | < 50 | 50 to 500 | > 500 | 0.1 to 50 | 0.1 to 50 | 50 to 500 | > 500 | > 500 | A (bin A for very high selectivity, ratio >30-fold) | A (bin A for very high selectivity, ratio >30-fold) | C (bin C for moderate selectivity, ratio ≥1) | B (bin B for high selectivity, ratio >10-fold)
2 | CCn1nc2c(n1)-c1ccc(F)cc1[C@@H](C)Oc1cc(cnc1N)-c1c(cnn1CC)C2 [Example 88, (19R)-3,10-diethyl-16-fluoro-19-methyl-20-oxa-3,4,9,10,11,23-hexaazapentacyclo(19.3.1.0^2,^6.0^8,^12.0^13,^18]pentacosa-1(24),2(6),4,8,11,13,15,17,21(25),22-decaen-22-amine] | < 50 | < 50 | < 50 | < 50 | 50 to 500 | 0.1 to 50 | 0.1 to 50 | 0.1 to 50 | 50 to 500 | 50 to 500 | A (bin A for very high selectivity, ratio >30-fold) | A (bin A for very high selectivity, ratio >30-fold) | C (bin C for moderate selectivity, ratio ≥1) | B (bin B for high selectivity, ratio >10-fold)
3 | CCn1ncc2c1-c1cnc(N)c(c1)O[C@H](C)c1cc(F)ccc1-c1oc(C)nc1C2 [Example 66, (19R)-3-ethyl-16-fluoro-10,19-dimethyl-11,20-dioxa-3,4,9,23-tetraazapentacyclo[19.3.1,0^2,^6.0^8,^12.0^13,^18]pentacosa-1(24),2(6),4,8(12),9,13,15,17,21(25),22-decaen-22-amine] | < 50 | < 50 | < 50 | < 50 | 50 to 500 | 0.1 to 50 | 0.1 to 50 | 0.1 to 50 | 0.1 to 50 | 50 to 500 | A (bin A for very high selectivity, ratio >30-fold) | A (bin A for very high selectivity, ratio >30-fold) | C (bin C for moderate selectivity, ratio ≥1) | B (bin B for high selectivity, ratio >10-fold)
4 | C[C@H]1Oc2cc(cnc2N)-c2c(cnn2CC2CC2)Cn2ncnc2-c2ccc(F)cc21 [Example 70, (19R)-3-(cyclopropylmethyl)-16-fluoro-19-methyl-20-oxa-3,4,8,9,11,23-hexaazapentacyclo[19.3.1.0^2,^6.0^8,^12.0^13,^18]pentacosa-1(24),2(6),4,9,11,13,15,17,21(25),22-decaen-22-amine] | < 50 | < 50 | < 50 | < 50 | > 500 | 0.1 to 50 | 0.1 to 50 | 0.1 to 50 | 50 to 500 | > 500 | A (bin A for very high selectivity, ratio >30-fold) | A (bin A for very high selectivity, ratio >30-fold) | A (bin A for very high selectivity, ratio >30-fold) | A (bin A for very high selectivity, ratio >30-fold)
5 | CCc1noc2c1-c1cnc(N)c(c1)O[C@H](C)c1cc(F)ccc1-c1nnnn1C2 [Example 58, (19R)-3-ethyl-16-fluoro-19-methyl-5,20-dioxa-4,8,9,10,11,23-hexaazapentacyclo[19.3.1.0^2,^6.0^8,^12.0^13,^18]pentacosa-1(24),2(6),3,9,11,13,15,17,21(25),22-decaen-22-amine] | < 50 | 50 to 500 | < 50 | 50 to 500 | 50 to 500 | 0.1 to 50 | 50 to 500 | 50 to 500 | > 500 | 50 to 500 | C (bin C for moderate selectivity, ratio ≥1) | A (bin A for very high selectivity, ratio >30-fold) | D (bin D for low selectivity, ratio <1) | C (bin C for moderate selectivity, ratio ≥1)
